Measurements reported in PMC3914206.

What was measured:
Type in all cases: binding
Details in all cases: Compound Concentration 10 µM
panel of 442 kinases [1] = target: T1, panel of 442 kinases (Homo sapiens, UniProt P24723)
T1 construct: purchased KINOMEscan
Source text: (§1) We assessed the selectivity of members of this scaffold using the KINOMEscan methodology across a near comprehensive panel of 442 kinases [[18,27]].

panel of 442 kinases [2] = target: T2, panel of 442 kinases (Homo sapiens, UniProt P53667)
T2 construct: purchased KINOMEscan
T2 sequence (P53667 whole entry): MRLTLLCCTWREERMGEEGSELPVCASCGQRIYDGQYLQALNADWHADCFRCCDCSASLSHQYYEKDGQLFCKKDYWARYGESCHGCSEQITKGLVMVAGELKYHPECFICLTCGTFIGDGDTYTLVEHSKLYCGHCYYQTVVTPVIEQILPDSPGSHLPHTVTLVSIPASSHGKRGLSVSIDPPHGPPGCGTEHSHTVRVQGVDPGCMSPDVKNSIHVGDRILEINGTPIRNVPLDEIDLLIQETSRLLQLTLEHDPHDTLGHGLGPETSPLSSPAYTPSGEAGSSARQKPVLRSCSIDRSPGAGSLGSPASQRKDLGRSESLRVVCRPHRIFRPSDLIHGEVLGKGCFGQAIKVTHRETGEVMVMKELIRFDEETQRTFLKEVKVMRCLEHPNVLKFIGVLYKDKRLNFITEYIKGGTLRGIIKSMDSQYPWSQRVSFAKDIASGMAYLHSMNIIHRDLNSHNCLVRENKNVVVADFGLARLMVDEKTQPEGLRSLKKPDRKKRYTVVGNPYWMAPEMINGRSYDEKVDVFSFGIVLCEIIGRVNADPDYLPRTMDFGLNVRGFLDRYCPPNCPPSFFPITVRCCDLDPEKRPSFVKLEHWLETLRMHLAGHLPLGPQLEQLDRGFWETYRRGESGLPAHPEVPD
Source text: as §1

panel of 442 kinases [3] = target: T3, panel of 442 kinases (Homo sapiens, UniProt O14757)
T3 construct: purchased KINOMEscan
T3 sequence (O14757 1-476): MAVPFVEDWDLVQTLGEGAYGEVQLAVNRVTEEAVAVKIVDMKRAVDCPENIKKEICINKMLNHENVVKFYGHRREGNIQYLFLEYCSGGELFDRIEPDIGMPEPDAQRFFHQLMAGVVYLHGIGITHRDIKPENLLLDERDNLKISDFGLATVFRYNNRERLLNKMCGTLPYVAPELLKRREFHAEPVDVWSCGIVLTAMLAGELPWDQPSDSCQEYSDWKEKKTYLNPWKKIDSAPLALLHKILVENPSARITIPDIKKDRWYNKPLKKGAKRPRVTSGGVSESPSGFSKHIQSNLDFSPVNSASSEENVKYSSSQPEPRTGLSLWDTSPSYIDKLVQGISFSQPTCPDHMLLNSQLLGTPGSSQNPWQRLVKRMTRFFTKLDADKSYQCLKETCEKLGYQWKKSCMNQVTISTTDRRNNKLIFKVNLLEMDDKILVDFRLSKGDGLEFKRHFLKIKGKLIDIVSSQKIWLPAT
Source text: as §1

T1 sequence (P24723 whole entry): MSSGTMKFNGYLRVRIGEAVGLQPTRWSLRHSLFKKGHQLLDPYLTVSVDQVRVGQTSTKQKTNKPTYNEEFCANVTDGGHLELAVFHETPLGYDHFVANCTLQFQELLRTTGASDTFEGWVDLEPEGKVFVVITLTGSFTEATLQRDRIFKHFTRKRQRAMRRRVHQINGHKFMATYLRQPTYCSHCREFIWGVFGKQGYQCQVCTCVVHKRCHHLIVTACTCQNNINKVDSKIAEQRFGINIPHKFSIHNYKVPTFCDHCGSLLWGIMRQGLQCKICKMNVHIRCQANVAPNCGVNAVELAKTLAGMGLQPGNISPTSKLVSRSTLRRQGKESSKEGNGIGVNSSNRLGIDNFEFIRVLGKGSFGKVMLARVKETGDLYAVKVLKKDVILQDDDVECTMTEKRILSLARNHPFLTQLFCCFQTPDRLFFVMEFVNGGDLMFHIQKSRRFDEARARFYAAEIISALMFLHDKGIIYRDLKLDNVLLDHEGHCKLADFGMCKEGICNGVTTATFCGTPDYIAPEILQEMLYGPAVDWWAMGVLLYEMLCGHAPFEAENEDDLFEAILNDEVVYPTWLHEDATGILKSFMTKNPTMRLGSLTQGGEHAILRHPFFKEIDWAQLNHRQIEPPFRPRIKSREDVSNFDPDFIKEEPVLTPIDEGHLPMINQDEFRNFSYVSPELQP

`COc1cc(C(=O)N2CCC(N3CCN(C)CC3)CC2)ccc1Nc1ncc2c(n1)N(C)c1ccccc1C(=O)N2C` [15 (LRRK2-IN-1)] was tested, and the “KINOMEscan: PRKCH” value (panel of 442 kinases [1]) was 100, the “KINOMEscan: LIMK1” value (panel of 442 kinases [2]) was 95 and the “KINOMEscan: CHEK1” value (panel of 442 kinases [3]) was 100.
For `CCOc1cc(C(=O)N2CCC(N3CCN(C)CC3)CC2)ccc1Nc1ncc2c(n1)N(C1CCCC1)c1ccccc1C(=O)N2C` [Compound 26], the “KINOMEscan: PRKCH” value (panel of 442 kinases [1]) was 100, the “KINOMEscan: LIMK1” value (panel of 442 kinases [2]) was 100 and the “KINOMEscan: CHEK1” value (panel of 442 kinases [3]) was 100.
With `COc1cc(C(=O)N2CCC(N3CCN(C)CC3)CC2)ccc1Nc1ncc2c(n1)N1CCc3cccc(c31)C(=O)N2C` [Compound 24] the “KINOMEscan: PRKCH” value (panel of 442 kinases [1]) was 84 and the “KINOMEscan: CHEK1” value (panel of 442 kinases [3]) was 85.
With `COc1cc(C(=O)N2CCC(N3CCN(C)CC3)CC2)ccc1Nc1ncc2c(n1)N(C1CCCC1)c1ccccc1C(=O)N2C` [Compound 25, 11-cyclopentyl-2-((2-methoxy-4-(4-(4-methylpiperazin-1-yl)piperidine-1-carbonyl)phenyl)amino)-5-methyl-5H-benzo[e]pyrimido[5,4-b][1,4]diazepin-6(11H)-one] the “KINOMEscan: PRKCH” value (panel of 442 kinases [1]) was 100, the “KINOMEscan: LIMK1” value (panel of 442 kinases [2]) was 93 and the “KINOMEscan: CHEK1” value (panel of 442 kinases [3]) was 100.
